From patent US20070010671A1, “Novel quinazoline derivatives and methods of treatment related to the use thereof” (priority 2003, published 2007)

Each compound was assayed against MCH receptor (Homo sapiens, UniProt Q99705) (assay: High throughput functional screening FLIPR/FDSS6000: inhibition of MCH-evoked intracellular Ca2+ changes). Conditions: class by percent of control at 10^−7 M or by IC50; read-out: class.
Assay type: cell-based
Outline: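 In a kinetic calcium-flux format, compounds were tested at various concentrations against 50 nM MCH. Fluo4-loaded cells expressing a constitutively active, non-endogenous receptor were imaged at 488/530 nm for 290 s after agonist addition.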

IC50 [nM] | SMILES
50 to 200 | CN(C)c1nc(N[C@H]2CC[C@@H](CNC(=O)c3ccc(Cl)cc3)C2)nc2ccccc12 [Example 1121, 4-chloro-N-[((1R,3S)-3-{[4-(dimethylamino)quinazolin-2-yl]amino}cyclopentyl)methyl]benzamide]
< 50 | CN(C)c1nc(N[C@H]2CC[C@@H](CNC(=O)c3cccc(Cl)c3)C2)nc2ccccc12 [Example 1122, 3-chloro-N-[((1R,3S)-3-{[4-(dimethylamino)quinazolin-2-yl]amino}cyclopentyl)methyl]benzamide]
< 50 | CN(C)c1nc(N[C@H]2CC[C@@H](CNC(=O)c3c(Cl)cc(Cl)cc3Cl)C2)nc2ccccc12 [Example 1123, 2,4,6-trichloro-N-[((1R,3S)-3-{[4-(dimethylamino)quinazolin-2-yl]amino}cyclopentyl)methyl]benzamide]
> 200 | CN(C)c1nc(N[C@H]2CC[C@@H](CNC(=O)c3ccc(C(F)(F)F)c(F)c3)C2)nc2ccccc12 [Example 1124, N-[((1R,3S)-3-{[4-(dimethylamino)quinazolin-2-yl]amino}-cyclopentyl)methyl]-3-fluoro-4-(trifluoromethyl)benzamide]
> 200 | CN(C)c1nc(N[C@H]2CC[C@@H](CNC(=O)c3ccc(C(F)(F)F)cc3F)C2)nc2ccccc12 [Example 1125, N-[((1R,3S)-3-{[4-(dimethylamino)quinazolin-2-yl]amino}-cyclopentyl)methyl]-2-fluoro-4-(trifluoromethyl)benzamide]
> 200 | CN(C)c1nc(N[C@H]2CC[C@@H](CNC(=O)c3cc(C(F)(F)F)ccc3C(F)(F)F)C2)nc2ccccc12 [Example 1126, N-[((1R,3S)-3-{[4-(dimethylamino)quinazolin-2-yl]amino}cyclopentyl)methyl]-2,5-bis(trifluoromethyl)benzamide]
< 50 | CN(C)c1nc(N[C@H]2CC[C@@H](CNC(=O)c3cccc(C(F)(F)F)c3)C2)nc2ccccc12 [Example 1127, N-[((1R,3S)-3-{[4-(dimethylamino)quinazolin-2-yl]amino}cyclopentyl)methyl]-3-(trifluoromethyl)benzamide]
50 to 200 | CN(C)c1nc(N[C@H]2CC[C@@H](CNC(=O)c3cc(F)ccc3F)C2)nc2ccccc12 [Example 1129, N-[((1R,3S)-3-{[4-(dimethylamino)quinazolin-2-yl]amino}cyclopentyl)methyl]-2,5-difluorobenzamide]
< 50 | CN(C)c1nc(N[C@H]2CC[C@@H](CNC(=O)c3cc(F)cc(F)c3)C2)nc2ccccc12 [Example 1130, N-[((1R,3S)-3-{[4-(dimethylamino)quinazolin-2-yl]amino}cyclopentyl)methyl]-3,5-difluorobenzamide]
> 200 | CN(C)c1nc(NC[C@@H]2CC[C@H](NC(=O)c3cccc(F)c3)C2)nc2ccccc12 [Example 1132, N-[(1S,3R)-3-({[4-(dimethylamino)quinazolin-2-yl]amino}methyl)cyclopentyl]-3-fluorobenzamide]
> 200 | CN(C)c1nc(NC[C@@H]2CC[C@H](NC(=O)c3ccc(F)cc3F)C2)nc2ccccc12 [Example 1133, N-[(1S,3R)-3-({[4-(dimethylamino)quinazolin-2-yl]amino}methyl)cyclopentyl]-2,4-difluorobenzamide]
< 50 | C[C@@H](NC(=O)[C@H]1CC[C@@H](Nc2nc(N(C)C)c3ccccc3n2)CC1)c1ccc(Cl)cc1 [Example 1139, cis-N-[(1R)-1-(4-chlorophenyl)ethyl)-4-{[4-(dimethylamino)quinazolin-2-yl]amino}cyclohexanecarboxamide]
< 50 | C[C@H](NC(=O)[C@H]1CC[C@@H](Nc2nc(N(C)C)c3ccccc3n2)CC1)c1cccc2ccccc12 [Example 1141, cis-4-{[4-(dimethylamino)quinazolin-2-yl]amino}-N-[(1S)-1-(1-naphthyl)ethyl]cyclohexanecarboxamide]
< 50 | Cc1cc(C)cc(CNC(=O)[C@H]2CC[C@@H](Nc3nc(N(C)C)c4ccccc4n3)CC2)c1 [Example 1142, cis-4-{[4-(dimethylamino)quinazolin-2-yl]amino}-N-(3,5-dimethylbenzyl)cyclohexanecarboxamide]
50 to 200 | Cc1ccc(CNC(=O)[C@H]2CC[C@@H](Nc3nc(N(C)C)c4ccccc4n3)CC2)cc1F [Example 1143, cis-4-{[4-(dimethylamino)quinazolin-2-yl]amino}-N-(3-fluoro-4-methylbenzyl)cyclohexanecarboxamide]
< 50 | CN(C)c1nc(N[C@H]2CC[C@@H](C(=O)NCc3c(F)ccc(Cl)c3F)CC2)nc2ccccc12 [Example 1147, cis-N-(3-chloro-2,6-difluorobenzyl)-4-{[4-(dimethylamino)quinazolin-2-yl]amino}cyclohexanecarboxamide]
< 50 | CN(C)c1nc(N[C@H]2CC[C@@H](C(=O)NCc3cccc(-c4ccccc4)c3)CC2)nc2ccccc12 [Example 1148, cis-N-(biphenyl-3-ylmethyl)-4-{[4-(dimethylamino)quinazolin-2-yl]amino}cyclohexanecarboxamide]
< 50 | Cc1ccc(Cl)c(CNC(=O)[C@H]2CC[C@@H](Nc3nc(N(C)C)c4ccccc4n3)CC2)c1F [Example 1150, cis-N-(6-chloro-2-fluoro-3-methylbenzyl)-4-{[4-(dimethylamino)quinazolin-2-yl]amino}cyclohexanecarboxamide]
< 50 | CN(C)c1nc(N[C@H]2CC[C@@H](C(=O)NCc3ccc(C(F)(F)F)cc3)CC2)nc2ccccc12 [Example 1153, cis-4-{[4-(dimethylamino)quinazolin-2-yl]amino}-N-[4-(trifluoromethyl)benzyl]cyclohexanecarboxamide]

Second part, the compound before the results:

SMILES | IC50 [nM]
CN(C)c1nc(N[C@H]2CC[C@@H](CNC(=O)[C@H](O)c3ccccc3)CC2)nc2ccccc12 [Example 1102, (2R)-N-[(cis-4-{[4-(dimethylamino)quinazolin-2-yl]amino}cyclohexyl)methyl]-2-hydroxy-2-phenylacetamide] | > 200
CN(C)c1nc(N[C@H]2CC[C@@H](CNC(=O)[C@@H](O)c3ccccc3)CC2)nc2ccccc12 [Example 1103, (2S)-N-[(cis-4-{[4-(dimethylamino)quinazolin-2-yl]amino}cyclohexyl)methyl]-2-hydroxy-2-phenylacetamide] | > 200
CN(C)c1nc(N[C@H]2CC[C@@H](NC(=O)[C@H](O)c3cccc(Cl)c3)CC2)nc2ccccc12 [Example 1111, (2R)-2-(3-chlorophenyl)-N-(cis-4-{[4-(dimethylamino)-quinazolin-2-yl]amino}cyclohexyl)-2-hydroxyacetamide] | < 50
CN(C)c1nc(N[C@H]2CC[C@@H](NC(=O)[C@@H](O)c3ccccc3Cl)CC2)nc2ccccc12 [Example 1114, (2S)-2-(2-chlorophenyl)-N-(cis-4-{[4-(dimethylamino)quinazolin-2-yl]amino}cyclohexyl)-2-hydroxyacetamide] | < 50
COc1cc(OC)cc(C(=O)NC[C@@H]2CC[C@H](Nc3nc(N(C)C)c4ccccc4n3)C2)c1 [Example 1120, N-[((1R,3S)-3-{[4-(dimethylamino)quinazolin-2-yl]amino}cyclopentyl)methyl]-3,5-dimethoxybenzamide] | < 50
CN(C)c1nc(N[C@H]2CC[C@@H](CNC(=O)c3ccc(OC(F)(F)F)cc3)C2)nc2ccccc12 [Example 1128, N-[((1R,3S)-3-{[4-(dimethylamino)quinazolin-2-yl]amino}cyclopentyl)methyl]-4-(trifluoromethoxy)benzamide] | > 200
CN(C)c1nc(N[C@H]2CC[C@@H](C(=O)NCc3ccccc3)CC2)nc2ccccc12 [Example 1135, cis-N-benzyl-4-{[4-(dimethylamino)quinazolin-2-yl]amino}cyclohexanecarboxamide] | < 50
CN(C)c1nc(N[C@H]2CC[C@@H](C(=O)NCc3ccc(Cl)nc3)CC2)nc2ccccc12 [Example 1136, cis-N-[(6-chloropyridin-3-yl)methyl]-4-{[4-(dimethylamino)quinazolin-2-yl]amino}cyclohexanecarboxamide] | < 50
COc1cccc([C@@H](C)NC(=O)[C@H]2CC[C@@H](Nc3nc(N(C)C)c4ccccc4n3)CC2)c1 [Example 1137, cis-4-{[4-(dimethylamino)quinazolin-2-yl]amino}-N-[(1R)-1-(3-methoxyphenyl)ethyl]cyclohexanecarboxamide] | < 50
Cc1c(Cl)cccc1CNC(=O)[C@H]1CC[C@@H](Nc2nc(N(C)C)c3ccccc3n2)CC1 [Example 1144, cis-N-(3-chloro-2-methylbenzyl)-4-{[4-(dimethylamino)quinazolin-2-yl]amino}cyclohexanecarboxamide] | < 50
Cc1ccc(Cl)cc1CNC(=O)[C@H]1CC[C@@H](Nc2nc(N(C)C)c3ccccc3n2)CC1 [Example 1145, cis-N-(5-chloro-2-methylbenzyl)-4-{[4-(dimethylamino)quinazolin-2-yl]amino}cyclohexanecarboxamide] | 50 to 200
Cc1ccc(F)cc1CNC(=O)[C@H]1CC[C@@H](Nc2nc(N(C)C)c3ccccc3n2)CC1 [Example 1146, cis-4-{[4-(dimethylamino)quinazolin-2-yl]amino}-N-(5-fluoro-2-methylbenzyl)cyclohexanecarboxamide] | < 50
CN(C)c1nc(N[C@H]2CC[C@@H](C(=O)NCc3ccccc3F)CC2)nc2ccccc12 [Example 1151, cis-4-{[4-(dimethylamino)quinazolin-2-yl]amino}-N-(2-fluorobenzyl)cyclohexanecarboxamide] | < 50
CN(C)c1nc(N[C@H]2CC[C@@H](C(=O)NCc3c(F)cccc3F)CC2)nc2ccccc12 [Example 1152, cis-N-(2,6-difluorobenzyl)-4-{[4-(dimethylamino)quinazolin-2-yl]amino}cyclohexanecarboxamide] | < 50
CN(C)c1nc(N[C@H]2CC[C@@H](C(=O)NCc3cccc4ccccc34)CC2)nc2ccccc12 [Example 1154] | < 50
